Patent EP1972624A1, “Benzoxazinones and their use as ultraviolet light absorbers” (Clariant International Ltd., priority 2007, dated 2008)
Values after ≈ are worked out from the molar mass of the structure shown.

Assays:
Format in all cases: physicochemical
[1] = Solubility in organic solvents; conditions: for Solubility in Dowanol PMA: Dowanol PMA (CH3COO2CH(CH3)CH2OCH3)
[2] = Decomposition point (DP) by DSC; conditions: sealed aluminum pan, 40 to 400°C, 10°C/min, nitrogen
Experimental: The decomposition point (DP) is determined using a TA Instruments DSC Q100 apparatus, the compound being incorporated into a sealed aluminum pan. Analysis conditions are as following: Temperature range from 40 to 400°C, heating rate 10°C/min, nitrogen flow of 50 ml/min. Values are determined by single measurement.

[3] = UV/vis: λmax and ε in CH2Cl2 by UV spectrophotometer; conditions: dissolved in CH2Cl2
Experimental: λmax (lambda max) and ε (epsilon) values of the compounds of formula (I) are determined dissolved in CH2Cl2 using an UV spectrophotometer. These values are obtained by balancing the measurements performed on compound solutions at three different concentrations.

| Solubility in xylene [1] [mg/mL] | DP (decomposition point) [2] [°C] | εmax [3] [L/mol/cm] | λmax [3] [nm] | SMILES | Solubility in Dowanol PMA [1] [mg/mL] |
| --- | --- | --- | --- | --- | --- |
| > 100 | 385 | 26200 | 341 | CCCCC(CC)COc1c(-c2nc3ccccc3c(=O)o2)sc2ccccc12 (stereo not drawn) [(Ib)] | > 50 |
| 120 (≈ 259 mM) | 381 | 21800 | 342 | CCCCCCCCCCCCOc1c(-c2nc3ccccc3c(=O)o2)sc2ccccc12 [(Ic)] | – |
| 100 (≈ 192 mM) | 384 | 31900 | 341 | CCCCCCCCCCCCCCCCOc1c(-c2nc3ccccc3c(=O)o2)sc2ccccc12 [(Id)] | – |
| 40 (≈ 89.4 mM) | ≥ 400 | 25900 | 343 | CCCCCCCCCCCc1c(-c2nc3ccccc3c(=O)o2)sc2ccc(C)cc12 [(Ie)] | – |
| < 10 | 351 | 28700 | 337 | CC(=O)Oc1c(-c2nc3ccccc3c(=O)o2)sc2ccccc12 [(If)] | – |
| < 10 | 352 | 26400 | 337 | CCCC(=O)Oc1c(-c2nc3ccccc3c(=O)o2)sc2ccccc12 [(Ig)] | – |
| 10 (≈ 23.7 mM) | 375 | 24100 | 337 | CCCCC(CC)C(=O)Oc1c(-c2nc3ccccc3c(=O)o2)sc2ccccc12 (stereo not drawn) [(Ih)] | – |
| < 10 | ≥ 400 | 25500 | 338 | O=C(Oc1c(-c2nc3ccccc3c(=O)o2)sc2ccccc12)c1ccccc1 [(Ii)] | – |
| < 5 | ≥ 390 | 29000 | 338 | O=c1oc(-c2sc3ccccc3c2Cl)nc2ccccc12 [(Ij)] | – |

| SMILES | Solubility in xylene [1] [mg/mL] | DP (decomposition point) [2] [°C] | εmax [3] [L/mol/cm] | λmax [3] [nm] | Solubility in Dowanol PMA [1] [mg/mL] |
| --- | --- | --- | --- | --- | --- |
| CCCCCCCCOc1c(-c2nc3ccccc3c(=O)o2)sc2ccccc12 [(Ia)] | > 100 | 370 | 26000 | 341 | > 50 |
